According to patent publication US20180194836A1, “PREVENTION OF METASTASIS AND RECURRENCE AFTER PRIMARY CANCER TREATMENT” (ENCYT TECHNOLOGIES, INC., priority 2014, published 2018):

What was measured:
HCT-15 cells = test: Cell proliferation / cell subpopulations in HCT-15 cell line after cytokines and cytokine cocktails (flow cytometry); format: cell-based; set-up: unit not given here; conditions: HCT-15 cells after exposure to cytokine combinations
Experimental: Cell proliferation of cancer and/or cancer stem cell populations with selected cytokine and cytokine cocktails on serum starved colorectal carcinoma cell lines. Prior to incubation cells were stained with a cell proliferation dye, which binds stoichiometrically to DNA. Intensity of the dye decreased upon cell division thereby signifying cell proliferation.
Two authenticated colorectal carcinoma cell lines, HCT-15 and SW-620, were used to test the effect of different cytokine and cytokine cocktails, including IL-6, HGF, PGE-2, TGF-beta and MMP-9 alone or in a cocktail, on cell proliferation, EMT and cancer stem cell populations.
In order to evaluate stem cell populations, cells were synchronized by serum starvation for 72 hours before seeding in 24-well ultra low attachment plates at a density of 200,000 cells/well. Cells were then detached using trypsin EDTA and washed twice with PBS (without Calcium or Magnesium). A cell proliferation dye, eFluor 450 was used to label cells. Cells were grown with DMEM with high glucose and 2 mM Gluatmine without FBS in the presence of selected cytokines and or cytokine cocktails over a period of 72 hrs.
Cells that were grown in 5% serum were stained with the following antibody cocktails: CD24FITC, CD44PE and CD24FITC, CD133PE. Cells were also stained with a fixable live/dead efluor dye 506 to exclude dead cells. In parallel, cells were grown in the presence of 5% serum to evaluate CSC markers.
(§1) Cells were fixed in 1% Paraformaldehyde for 15 minutes at room temperature and run on Flowsight using 2 lasers (488 nm at 60 mW and 405 nm at 30 mW). For cell lines, 100,000 events were collected whilst for enriched CTCs all events were collected until the sample finished.
(§2) Flow cytometry data was analysed using IDEAS software. Double events, out of focus events, CD45PerePCy5.5 positive cells (in case of enriched CTCs), dead cells and non-nucleated events were eliminated from the fluorescence analysis of the cell population. FIG. 2 depicts scatterplots of flow cytometry experiments showing the enriched CTCs stained with an antibody containing CD44 after treatment with various cytokines and cytokine cocktails. Hoescht 33258 dye was used to stain nuclei in the case of the HCT-15 cell line and enriched CTCs. All experiments were stained with a fixable live/dead dye eFluor 506 to exclude dead cells.
To evaluate which cocktail combinations were most likely involved in cell proliferation of presumed quiescent stem cells or de-differentiated stein cell-like cells, four cytokines, IL-6, HGF, PGB-2 and TO were added singly or in pairs to HCT-15 cells. Results of combinations that influenced cell proliferation of HCT-15 cells in culture are presented. […] FIG. 4 depicts cell proliferation of subpopulations in the HCT-15 cell line after exposure to various cytokines and cytokine cocktails.

[1] = test system: enriched circulating tumour cells (CTCs); test: Cell proliferation / cancer stem cell markers in enriched CTCs from a patient with metastatic prostate cancer cultured with cytokine cocktails; format: cell-based, human; conditions: for EpCAM+CD133+ gated subpopulation / EpCAM+CD133− gated subpopulation / EpCAM−CD133+ gated subpopulation / EpCAM−CD133− gated subpopulation: enriched CTCs (metastatic prostate cancer patient) cultured with cytokine or cytokine cocktail, flow cytometry, antibody cocktail EpCAM A488, CD133 PE, CD45 PerCPCy5.5, percentages of gated subpopulations; for proliferation of EpCAM-CD44+ cell sub-population: no serum, no cytokines 2.2%; for Cell population EpCAM+CD44+ / Cell population EpCAM+CD44− / Cell population EpCAM−CD44+ / Cell population EpCAM−CD44−: metastatic prostate cancer patient, cell culture period 8 days
Experimental: as §1
as §2, with “cocktails.” for “cocktails. Hoescht 33258 dye was used to stain nuclei in the case of the HCT-15 cell line and enriched CTCs. All experiments were stained with a fixable live/dead dye eFluor 506 to exclude dead cells.”
In order to determine if selected cytokines influence cell proliferation of circulating tumour cells (CTCs), whole blood was collected from a patient with metastatic prostate cancer. Circulating tumour cells were enriched from whole blood using RosetteSep CTC Enrichment cocktail. Briefly, samples of whole blood were incubated with RosetteSep (anti CD 56 for 20 minutes at room temperature). Phosphate buffered saline containing 2% Fetal Bovine Serum was added to the samples and layered on a Ficoll Paque gradient. After centrifugation, the supernatant which contained CTCs was washed twice with PBS containing 2% FBS. Equal volumes of the cell suspension were seeded into a 24-well ultra-low attachment polystyrene plate. […] FIG. 3 depicts scatterplots of flow cytometry experiments enriched CTCs stained with an antibody containing CD133 after treatment with various cytokines and cytokine cocktails.
FIG. 6 depicts cell proliferation of subpopulations in cultured CTCs after exposure to various cytokines and cytokine cocktails. Cells were stained using an antibody containing CD44 PE.
Cells were stained using an antibody containing CD133 PE.

SW-620 cells = SW-620 cells treated with cytokines then Irinotecan; flow cytometry for stem cell markers and apoptosis; format: cell-based, human; conditions: SW-620, preliminary data
Experimental: SW-620 cells, a human colorectal adenocarcinoma cell line, were treated with cytokines alone or in combination including IL-6, TGF-beta, HGF, PGE-2, IL-6+PGE-2 and TGF-beta+HGF for 24 hours and compared to untreated SW-620 cells as control, Some treated and untreated SW-620 cells were then exposed to 2 μM Irinotecan for 36 hours at which point cells were harvested for flow cytometry to assess for stem cell markers and markers of apoptosis. The percentage of CD44+CD133− cells following treatment with various cytokine and cytokine cocktails is depicted in FIG. 10. Compared to non-cytokine treated cells, combinations with IL-6+PGE-2, and TGF-beta+HGF increased the number and percentage of cells that were CD44+CD133− as shown in FIG. 10 (stem cells). FIG. 11 depicts the percentage of CD44+CD133− cells following treatment with various cytokines and Irinotecan. Treatment with IL-6+Irinotecan and TGF+Irinotecan increased the percentage of CD44+CD133− stem cells to 2% (from zero in non-treated control cells) as shown in FIG. 11. FIG. 12 depicts the percentage of CD44+CD133− cells following treatment with various cytokine cocktails and Irinotecan. A combination of TGF+HGF+Irinotecan increased the percentage of CD44+CD133− stem cells to 2% (from zero in non-treated control cells) as shown in FIG. 12. […]

[2] = early use after coronary artery bypass surgery; cited from earlier work
breast cancer = conditions: perioperative, 9-18 month period of greatest risk, compared to other analgesics or NSAIDs post-operatively; cited from earlier work
[3] = test system: B16 amelanotic melanoma model; conditions: cited from earlier work
[4] = test system: enriched circulating tumour cells (CTCs); test: Enriched CTCs from a patient with colorectal cancer cultured with IL-6, IL-8 or PDGFBB (EpCAM/CD133 flow cytometry); format: cell-based, human; conditions: for EpCAM+CD133+ gated subpopulation / EpCAM+CD133− gated subpopulation / EpCAM−CD133+ gated subpopulation / EpCAM−CD133− gated subpopulation: colorectal cancer patient
Text: A blood sample was collected from a patient with colorectal cancer six days after surgery, Blood samples were enriched for CTCs using RosetteSep CD 56 kit according to standard protocol. Prior to cell culture, cells were stained with the following antibody cocktail: EpCAM A488, CD133PE, CD 45 PerCP Cy5.5, and Lgr5-PE-Vio770. Cells were either cultured in low attachment well plates without cytokines (control cells) or with three different cytokines (IL-6, IL-8 or PDGFBB).
Flow cytometry data was analysed using IDEAS software. Double events, out of focus events, CD45PercPCy5.5 positive cells, dead cells and non-nucleated events were eliminated from the fluorescence analysis of the cell population. Hoescht 33258 dye was used to stain nuclei of enriched CTCs. All experiments were stained with a fixable live/dead dye eFluor 506 to exclude dead cells.

[5] = test system: premetastatic niche formation; conditions: disruption of niche formation; cited from earlier work
colon cancer = conditions: cited from earlier work

Molecule | CD24+CD44− cell subpopulation (HCT-15 cells) | CD44+CD24+ cell subpopulation (HCT-15 cells) | CD44+CD24− cell subpopulation (HCT-15 cells) | CD44−CD24− cell subpopulation (HCT-15 cells) | EpCAM+CD133+ gated subpopulation [1] | EpCAM+CD133− gated subpopulation [1] | EpCAM−CD133+ gated subpopulation [1] | EpCAM−CD133− gated subpopulation [1] | Cell population EpCAM+CD44+ ([1]; enriched CTCs) | Cell population EpCAM+CD44− ([1]; enriched CTCs) | Cell population EpCAM−CD44+ ([1]; enriched CTCs) | Cell population EpCAM−CD44− ([1]; enriched CTCs) | EpCAM+CD133+ gated subpopulation [4] | EpCAM+CD133− gated subpopulation [4] | EpCAM−CD133+ gated subpopulation [4] | EpCAM−CD133− gated subpopulation [4] | other results
CCCCC[C@H](O)/C=C/[C@H]1[C@H](O)CC(=O)[C@@H]1C/C=C\CCCC(=O)O [PGE-2, prostaglandin E2, reference compound] | 58.7 | 7.3 | 0.61 | 32.4 | 10.4% | 0% | 86.7% | 2.61% | 27.2 percentage of gated cells | 1.75 percentage of gated cells | 4.23 percentage of gated cells | 65.5 percentage of gated cells | – | – | – | – | proliferation of EpCAM-CD44+ cell sub-population ([1]; enriched CTCs, 8 days culture): 4.23 % gated; enrichment of Irinotecan treated cells for cancer stem cells above non-cytokine treated controls (SW-620 cells): enriched
CC(=O)Oc1ccccc1C(=O)O [aspirin] | – | – | – | – | – | – | – | – | – | – | – | – | – | – | – | – | survival compared to no aspirin [2]: superior survival
O=C(c1ccccc1)c1ccc2n1CCC2C(=O)O (stereo not shown) [ketorolac] | – | – | – | – | – | – | – | – | – | – | – | – | – | – | – | – | reduction in relapses (breast cancer): 5 fold
CCCCC[C@H](O)/C=C/[C@@H]1[C@H]2C/C(=C/CCCC(=O)O)O[C@H]2C[C@H]1O [prostacyclin] | – | – | – | – | – | – | – | – | – | – | – | – | – | – | – | – | hepatic metastases [3]: complete elimination; pulmonary metastases [3]: reduction
HGF: Hepatocyte Growth Factor, cytokine added to cultured cancer cells | 58.6 | 3.29 | 0.31 | 35.9 | 17.2% | 0.2% | 80.8% | 1.58% | 16.8 percentage of gated cells | 4.89 percentage of gated cells | 2.12 percentage of gated cells | 74.9 percentage of gated cells | – | – | – | – | –
IL-6: cytokine Interleukin 6 added to cultured cancer cells | 49.1 | 5.63 | 1.35 | 43.2 | 23.5% | 0% | 74.7% | 1.46% | 35.6 percentage of gated cells | 2.66 percentage of gated cells | 6.14 percentage of gated cells | 55 percentage of gated cells | 0.1 percentages of gated subpopulations | 2.98 percentages of gated subpopulations | 0.12 percentages of gated subpopulations | 90.5 percentages of gated subpopulations | percentage of cells positive for both EpCAM and CD44 ([1]; enriched CTCs, 8 days culture): highest; proliferation of EpCAM-CD44+ cell sub-population ([1]; enriched CTCs, 8 days culture): 6.14 % gated; increase in the EpCAM+CD133− subpopulation (significance, p<0.05) ([4]; compared to control): statistically significant; enrichment of Irinotecan treated cells for cancer stem cells above non-cytokine treated controls (SW-620 cells): enriched
Il-8: cytokine IL-8 added to cultured CTCs | – | – | – | – | – | – | – | – | – | – | – | – | 0.13 percentages of gated subpopulations | 2.51 percentages of gated subpopulations | 0.09 percentages of gated subpopulations | 90.8 percentages of gated subpopulations | –
bevacizumab: antiangiogenic agent | – | – | – | – | – | – | – | – | – | – | – | – | – | – | – | – | metastatic colonization [5]: prevented metastatic colonization; relapse (colon cancer; during the year on treatment, started 29-50 days post-operatively, with adjuvant chemotherapy): delayed relapse; overall survival (colon cancer; versus chemotherapy-only group): no net benefit
PDGFBB: Platelet derived growth factor BB added to cultured CTCs (protein, UniProt P01127 82-190, looked up, BB homodimer, Platelet derived growth factor BB added to cultured CTCs) Platelet-derived growth …: SLGSLTIAEPAMIAECKTRTEVFEISRRLIDRTNANFLVWPPCVEVQRCSGCCNNRNVQCRPTQVQLRPVQVRKIEIVRKKPIFKKATVTLEDHLACKCETVAAARPVT | – | – | – | – | – | – | – | – | – | – | – | – | 0.18 percentages of gated subpopulations | 2.29 percentages of gated subpopulations | 0.1 percentages of gated subpopulations | 90.5 percentages of gated subpopulations | –
